The values that follow are results of earlier work, collected in patent US20200253976A1, “Endothelial Facilitation in Neurodegerative Diseases by Cerebral Blood Flow Enhancement” (UNIVERSITY OF MASSACHUSETTS, priority 2017, published 2020).

One data set relates to NOS. The conditions noted are these: mouse ovarian follicles; L-arginine omitted.
For data set [1] the following is noted: in vivo.
The next data set addresses T1, eNOS (Homo sapiens, UniProt P29474).
T1 sequence (P29474 1-1203): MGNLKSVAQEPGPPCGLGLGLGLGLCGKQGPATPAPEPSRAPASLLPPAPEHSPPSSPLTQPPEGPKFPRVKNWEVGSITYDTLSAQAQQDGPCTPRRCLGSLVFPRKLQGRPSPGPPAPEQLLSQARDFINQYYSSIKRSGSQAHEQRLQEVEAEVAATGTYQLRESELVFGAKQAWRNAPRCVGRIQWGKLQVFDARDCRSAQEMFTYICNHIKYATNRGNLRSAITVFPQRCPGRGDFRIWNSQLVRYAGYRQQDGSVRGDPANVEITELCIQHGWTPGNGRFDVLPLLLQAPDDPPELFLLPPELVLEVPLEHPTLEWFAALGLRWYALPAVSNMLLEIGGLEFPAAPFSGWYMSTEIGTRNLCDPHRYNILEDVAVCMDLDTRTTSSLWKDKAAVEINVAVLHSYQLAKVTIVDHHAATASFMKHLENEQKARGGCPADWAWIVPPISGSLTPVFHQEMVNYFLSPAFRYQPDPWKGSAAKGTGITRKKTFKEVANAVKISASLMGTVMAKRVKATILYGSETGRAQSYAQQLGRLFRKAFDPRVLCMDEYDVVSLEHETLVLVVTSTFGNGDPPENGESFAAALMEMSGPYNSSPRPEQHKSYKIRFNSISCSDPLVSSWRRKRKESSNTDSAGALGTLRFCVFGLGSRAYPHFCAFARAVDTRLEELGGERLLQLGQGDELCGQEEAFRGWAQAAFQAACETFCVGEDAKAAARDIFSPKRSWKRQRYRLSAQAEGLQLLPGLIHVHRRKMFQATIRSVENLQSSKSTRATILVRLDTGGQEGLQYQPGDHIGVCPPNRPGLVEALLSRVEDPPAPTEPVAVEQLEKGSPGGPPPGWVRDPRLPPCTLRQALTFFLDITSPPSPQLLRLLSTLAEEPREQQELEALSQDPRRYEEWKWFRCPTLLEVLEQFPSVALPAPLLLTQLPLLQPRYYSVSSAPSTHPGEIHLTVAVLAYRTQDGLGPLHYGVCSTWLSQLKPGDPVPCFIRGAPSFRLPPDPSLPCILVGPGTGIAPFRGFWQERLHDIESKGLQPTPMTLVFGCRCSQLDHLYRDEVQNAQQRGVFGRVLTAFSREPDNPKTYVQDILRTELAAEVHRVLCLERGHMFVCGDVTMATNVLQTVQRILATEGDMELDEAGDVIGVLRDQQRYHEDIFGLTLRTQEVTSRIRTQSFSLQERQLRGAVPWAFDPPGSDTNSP
The conditions noted are these: endothelial dysfunction where l-arginine is rate-limiting.

In data set [2] the test system is treated subjects with Alzheimer's disease. The conditions noted are these: human trial in AD, stopped prematurely.
For data set [3] the following is noted: phase 2 study.

Like-named read-outs stand apart in the source and are kept apart here.

With `NC(=NCCC[C@H](N)C(=O)O)NO` [NG-hydroxy-L-arginine], the “compensation for L-arginine withdrawal (NOS phenotype)” value in the data set with NOS is given as “partial compensation”.
As for `C[C@@H](C(=O)O)c1ccc(-c2ccccc2)c(F)c1` [Tarenflurbil], the “benefit in AD” value in data set [1] is reported as “failed to produce any benefit”.
As for `NC(=O)NCCC[C@H](N)C(=O)O` [L-citrulline], the “compensation for L-arginine withdrawal (NOS phenotype)” value in the data set on NOS is given as “partial compensation”. Moreover, the “eNOS activity on supplementation” value on eNOS is reported as “fully restored”.
As for `CC(C)[C@H](O)C(=O)N[C@@H](C)C(=O)N[C@@H]1C(=O)N(C)CCc2ccccc21` [semagacestat], the “cognitive performance of treated subjects versus control / placebo” value in data set [2] is recorded as “significantly worse cognitive performance than control subjects”; in data set [2] (listed as Semagacestat) it was “exacerbated cognitive decline compared with placebo”.
As for `C[C@H](O)[C@H](O)[C@H]1CNc2nc(N)[nH]c(=O)c2N1` [Sapropterin, tetrahydrobiopterin], for the setting “gastrointestinal side effect”, the “abdominal pain, frequency” value is recorded as 5%; the “diarrhea, frequency” value is given as 8%; the “nausea, frequency” value is given as 4%; the “vomiting, frequency” value is recorded as 8%. The “headache, frequency” value (in vivo) is 15%. Further, where the note is “upper respiratory symptom”, the “nasal discharge, frequency” value is given as 11%; the “pain in throat, frequency” value is listed as 10%; the “upper respiratory infection, frequency” value was 12-17%.
In the case of `NC(=O)[C@@H](CCC(F)(F)F)N(Cc1ccc(-c2ncon2)cc1F)S(=O)(=O)c1ccc(Cl)cc1` [Avagacestat], in data set [3], the cognitive benefit entry is listed as “no cognitive benefit”.
Take “AN-1792: Abeta active immunization (Elan Pharmaceuticals, Inc.)”: the “Aβ in the brain of treated subjects” value in the data set on patients with AD (active immunization) is “decreased Aβ markedly”. Further, the progression of dementia result in the data set on patients with AD (active immunization, even when the amyloid plaques had been removed) is listed as “failed to decrease the progression of dementia”. Also, the “brain atrophy on quantitative imaging versus control subjects” value with patients with AD (treated subjects with immunological response and decreased amyloid burden) is reported as “greater brain atrophy”. Besides, the autoimmune encephalopathy entry in the data set on patients with AD (trial stopped) was “several subjects developed an autoimmune encephalopathy”.
